Several values for one entry are separate records, joined by “and”; a condition that tells them apart may be missing. Identical values can stand only once. Entries after “also recorded” stand apart in the source; their conditions may differ. Counter-ions that a name gives are not always drawn. Like-named read-outs stand apart in the source and are kept apart here.
How the values were obtained:
CYP2E1 = CYP2E1 (Homo sapiens, UniProt P05181); details: cited from earlier work
[1] = system: human liver microsomes (HLMs); assay: Kinetic analysis of MH metabolism in HLMs; format: in vitro ADME; details: HLMs 0.5 mg/mL, MH 0.5–100 µM, 30 min, 37°C
CYP2C9 [2] = target: T1, CYP2C9 (Homo sapiens, UniProt P11712); assay: Effect of specific inhibitor sulfaphenazole on MH metabolism in HLMs; format: in vitro ADME; details: MH 10 µM, in the presence of SUL 1 µM
T1 construct: tissue Cypex Ltd. (U.K.); host or cells: pooled human liver microsomes, ten donors
T1 sequence (P11712 whole entry): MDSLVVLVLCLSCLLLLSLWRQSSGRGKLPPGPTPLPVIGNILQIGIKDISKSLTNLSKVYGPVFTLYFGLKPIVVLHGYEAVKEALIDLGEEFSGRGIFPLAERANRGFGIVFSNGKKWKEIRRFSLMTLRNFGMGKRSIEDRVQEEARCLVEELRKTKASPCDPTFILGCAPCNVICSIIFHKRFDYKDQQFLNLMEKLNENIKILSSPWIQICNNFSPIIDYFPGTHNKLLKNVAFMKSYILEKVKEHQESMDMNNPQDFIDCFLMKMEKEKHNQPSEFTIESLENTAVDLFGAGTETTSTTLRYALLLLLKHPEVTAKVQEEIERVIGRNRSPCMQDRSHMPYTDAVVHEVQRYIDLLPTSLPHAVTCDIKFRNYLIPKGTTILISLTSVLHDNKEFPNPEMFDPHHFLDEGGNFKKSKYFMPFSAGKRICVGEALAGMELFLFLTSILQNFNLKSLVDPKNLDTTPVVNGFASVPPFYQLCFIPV
Protocol: (§1) The samples were vortexed for 5 min.
(§2) P<0.05 denoted significance in all cases.

CYP2D6 [3] = target: T2, CYP2D6 (Homo sapiens, UniProt P10635); assay: Effect of specific inhibitor quinidine on MH metabolism in HLMs; format: in vitro ADME; details: MH 10 µM, in the presence of QUI 1 µM
T2 construct: tissue Cypex Ltd. (U.K.); host or cells: pooled human liver microsomes, ten donors
T2 sequence (P10635 whole entry): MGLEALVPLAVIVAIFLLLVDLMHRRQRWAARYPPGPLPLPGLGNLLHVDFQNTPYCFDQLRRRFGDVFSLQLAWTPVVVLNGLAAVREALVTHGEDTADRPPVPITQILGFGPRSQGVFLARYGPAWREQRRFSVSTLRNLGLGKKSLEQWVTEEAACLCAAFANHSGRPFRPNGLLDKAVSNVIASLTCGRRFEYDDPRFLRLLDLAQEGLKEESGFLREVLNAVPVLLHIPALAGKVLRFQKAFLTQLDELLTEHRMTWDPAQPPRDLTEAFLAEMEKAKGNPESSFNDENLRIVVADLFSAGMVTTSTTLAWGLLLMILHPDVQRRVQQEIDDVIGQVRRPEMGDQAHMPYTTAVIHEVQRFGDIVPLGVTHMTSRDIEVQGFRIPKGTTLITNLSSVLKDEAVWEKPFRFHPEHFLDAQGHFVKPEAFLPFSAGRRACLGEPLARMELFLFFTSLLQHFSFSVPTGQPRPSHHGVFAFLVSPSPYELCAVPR
Protocol: as §1, §2

CYP3A4 [4] = target: T3, CYP3A4 (Homo sapiens, UniProt P08684); assay: Effect of specific inhibitor ketoconazole on MH metabolism in HLMs; format: in vitro ADME; details: MH 10 µM, in the presence of KET 1 µM
T3 construct: tissue Cypex Ltd. (U.K.); host or cells: pooled human liver microsomes, ten donors
T3 sequence (P08684 whole entry): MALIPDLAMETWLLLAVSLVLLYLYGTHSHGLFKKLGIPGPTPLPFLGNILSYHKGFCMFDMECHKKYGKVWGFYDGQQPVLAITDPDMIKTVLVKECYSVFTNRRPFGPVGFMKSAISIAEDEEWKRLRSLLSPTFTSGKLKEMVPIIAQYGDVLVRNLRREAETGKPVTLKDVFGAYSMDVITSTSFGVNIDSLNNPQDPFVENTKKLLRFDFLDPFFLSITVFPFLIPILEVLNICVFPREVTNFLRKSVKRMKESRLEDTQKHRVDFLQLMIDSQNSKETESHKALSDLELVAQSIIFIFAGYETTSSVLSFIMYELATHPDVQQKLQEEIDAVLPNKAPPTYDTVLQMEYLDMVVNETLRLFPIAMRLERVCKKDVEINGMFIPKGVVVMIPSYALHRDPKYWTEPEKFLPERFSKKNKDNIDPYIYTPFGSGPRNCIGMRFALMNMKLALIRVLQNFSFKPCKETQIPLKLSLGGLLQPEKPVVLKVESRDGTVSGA
Protocol: as §1, §2

CYP2C9 [5] = target: T1, CYP2C9; assay: Inhibition of CYP2C9 (tolbutamide 4-hydroxylation) in HLMs; format: in vitro ADME
Protocol: as §1
(§3) All incubation conditions were the same as mentioned above.
as §2

CYP2D6 [6] = target: T2, CYP2D6; assay: Inhibition of CYP2D6 (metoprolol α-hydroxylation) in HLMs; format: in vitro ADME
Protocol: as §1, §3, §2

CYP3A4 [7] = target: T3, CYP3A4; assay: Inhibition of CYP3A4 (midazolam 1-hydroxylation) in HLMs; format: in vitro ADME
Protocol: as §1, §3, §2

[8] = system: longitudinal and circular jejunum muscles; details: dose-dependent manner; cited from earlier work
[9] = design: method as in PMID 21061180; details: rats; cited from earlier work
CYP1A2 [10] = target: T4, CYP1A2 (Homo sapiens, UniProt P05177); assay: Kinetic analysis of MH metabolism by recombinant CYP1A2; format: in vitro ADME; design: purchased Cypex Ltd. (U.K.); details: recombinant CYP1A2 10 pmol
T4 sequence (P05177 1-516): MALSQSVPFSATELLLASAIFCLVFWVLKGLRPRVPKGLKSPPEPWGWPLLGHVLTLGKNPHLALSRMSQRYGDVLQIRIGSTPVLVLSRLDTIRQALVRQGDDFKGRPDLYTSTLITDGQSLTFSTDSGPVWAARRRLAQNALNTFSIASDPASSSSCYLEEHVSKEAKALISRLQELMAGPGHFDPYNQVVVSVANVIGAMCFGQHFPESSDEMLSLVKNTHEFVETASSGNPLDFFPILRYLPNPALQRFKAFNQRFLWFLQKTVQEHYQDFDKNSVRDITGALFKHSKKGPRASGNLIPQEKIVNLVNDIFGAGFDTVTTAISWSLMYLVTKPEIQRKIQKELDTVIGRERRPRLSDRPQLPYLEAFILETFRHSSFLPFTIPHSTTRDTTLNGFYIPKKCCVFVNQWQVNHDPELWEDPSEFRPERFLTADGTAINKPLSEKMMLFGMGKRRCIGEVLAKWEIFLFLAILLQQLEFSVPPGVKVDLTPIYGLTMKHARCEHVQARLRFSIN
Protocol: as §1
(§4) Kinetic analysis was performed for MH, and the data generated were used as a guide for selecting the appropriate concentrations of MH in the subsequent inhibition experiments. Thus, the kinetic parameters for the metabolism of MH was determined by incubating increasing concentrations of MH (0.5–100 µM) (without the inhibitor) at 37°C with the HLMs and NADPH under the incubation conditions. The equation of MH reaction velocity (V) in the HLMs or CYP isoforms was expressed as V = (C0–Ct)/T/Cp, where C0 and Ct represented the initial and final concentrations of MH in the incubation solution, respectively. T was the incubation time (min) and Cp was the protein concentration (mg/mL or nmol). All values were expressed as the mean±standard deviation (SD). The mean intrinsic clearance rate (CLint) for the in vitro incubation was estimated using Vmax/Km.
as §2

CYP2C19 [11] = target: T5, CYP2C19 (Homo sapiens, UniProt P33261); assay: Kinetic analysis of MH metabolism by recombinant CYP2C19; format: in vitro ADME; design: purchased Cypex Ltd. (U.K.); details: recombinant CYP2C19 10 pmol
T5 sequence (P33261 whole entry): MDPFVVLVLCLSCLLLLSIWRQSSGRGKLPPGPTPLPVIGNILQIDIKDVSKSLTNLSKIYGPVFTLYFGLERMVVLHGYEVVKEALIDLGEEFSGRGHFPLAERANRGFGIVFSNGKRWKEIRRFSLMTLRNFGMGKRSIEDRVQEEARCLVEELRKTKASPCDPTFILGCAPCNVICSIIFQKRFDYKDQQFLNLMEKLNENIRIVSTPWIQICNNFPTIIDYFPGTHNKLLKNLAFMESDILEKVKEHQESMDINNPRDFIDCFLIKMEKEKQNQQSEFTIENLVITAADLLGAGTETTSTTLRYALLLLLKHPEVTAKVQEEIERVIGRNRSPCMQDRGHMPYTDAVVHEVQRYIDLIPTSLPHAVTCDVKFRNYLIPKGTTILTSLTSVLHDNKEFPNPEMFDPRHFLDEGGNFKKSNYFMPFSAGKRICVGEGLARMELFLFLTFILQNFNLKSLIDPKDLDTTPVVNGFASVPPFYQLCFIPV
Protocol: as §1, §4, §2

CYP1A2 [12] = target: T4, CYP1A2; assay: MCR of MH with recombinant CYP1A2 inhibited by furafylline; format: in vitro ADME; design: purchased Cypex Ltd. (U.K.); details: furafylline 1 µM
Protocol: as §1
(§5) Figure 3 Effect on the metabolic clearance rate (MCR) of meranzin hydrate (MH) under the inhibition of recombinant CYP1A2 and CYP2C19. […] Each point represents the average of triplicate incubations.

CYP2C19 [13] = target: T5, CYP2C19; assay: MCR of MH with recombinant CYP2C19 inhibited by ticlopidine; format: in vitro ADME; design: purchased Cypex Ltd. (U.K.); details: ticlopidine 1 µM
Protocol: as §1, §5

CYP1A2 [14] = target: T4, CYP1A2; assay: Effect of specific inhibitor furafylline on MH metabolism in HLMs; format: in vitro ADME; design: tissue Cypex Ltd. (U.K.); host or cells: pooled human liver microsomes, ten donors; details: MH 10 µM, in the presence of FUR 1 µM
Protocol: as §1, §2

CYP2C19 [15] = target: T5, CYP2C19; assay: Effect of specific inhibitor ticlopidine on MH metabolism in HLMs; format: in vitro ADME; design: tissue Cypex Ltd. (U.K.); host or cells: pooled human liver microsomes, ten donors; details: MH 10 µM, in the presence of TIC 1 µM
Protocol: as §1, §2

CYP1A2 [16] = target: T4, CYP1A2; assay: Inhibition of CYP1A2 (phenacetin O-deethylation) in HLMs; format: in vitro ADME; design: tissue Cypex Ltd. (U.K.); host or cells: pooled human liver microsomes, ten donors
Protocol: as §1, §3
(§6) Therefore, Dixon plots for the inhibition of CYP1A2 and CYP2C19 were determined by incubating the substrate probe at multiple concentrations with or without the test inhibitor at multiple concentrations with the HLMs and cofactors. The inhibition data obtained from the pilot experiments were used as a guide to generate appropriate probe substrate and test inhibitor concentrations for the determination of the Ki values for each CYP isoform. The isoform-specific probe substrate concentrations used were 3 to 100 µM phenacetin for CYP1A2 and 15 to 120 µM S-mephenytoin for CYP2C19. The MH concentrations used were 0 to 100 µM.
as §2

CYP2C19 [17] = target: T5, CYP2C19; assay: Inhibition of CYP2C19 (S-Mephenytoin 4-hydroxylation) in HLMs; format: in vitro ADME; design: tissue Cypex Ltd. (U.K.); host or cells: pooled human liver microsomes, ten donors
Protocol: as §1, §3, §6, §2

Chain of CYP2E1 (P05181 whole entry): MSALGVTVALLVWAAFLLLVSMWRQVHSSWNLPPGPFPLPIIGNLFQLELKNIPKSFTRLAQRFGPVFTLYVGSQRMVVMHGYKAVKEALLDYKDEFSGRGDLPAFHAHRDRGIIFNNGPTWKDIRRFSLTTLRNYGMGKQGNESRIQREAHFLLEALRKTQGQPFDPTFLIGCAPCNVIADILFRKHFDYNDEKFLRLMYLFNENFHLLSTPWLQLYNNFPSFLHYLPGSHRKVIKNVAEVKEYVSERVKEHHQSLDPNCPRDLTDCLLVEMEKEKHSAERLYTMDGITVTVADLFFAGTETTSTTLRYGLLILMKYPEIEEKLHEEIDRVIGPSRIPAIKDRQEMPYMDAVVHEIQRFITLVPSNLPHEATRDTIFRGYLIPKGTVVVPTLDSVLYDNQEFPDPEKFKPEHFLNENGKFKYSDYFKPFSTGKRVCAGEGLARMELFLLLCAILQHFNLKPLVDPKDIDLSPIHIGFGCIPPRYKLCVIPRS

Structure (SMILES): CCN(CC)C(=S)S [DIE, diethyldithiocarbamate]
- IC50 (CYP2E1): 21.3 µM

Structure (SMILES): COc1ccc2ccc(=O)oc2c1C[C@H](O)C(C)(C)O [MH, Meranzin hydrate]
- Km [1]: 10.3 ± 1.3 µM
- Vmax of MH metabolism [1]: 99.1±3.3 nmol/mg protein/min
- Km ([1]; listed as Meranzin hydrate): 10.3 µM
- Vmax of MH metabolism ([1]; listed as Meranzin hydrate): 99.11 nmol/mg protein/min
- effect on metabolism (MCR) of MH (CYP2C9 [2]): no obvious inhibitory effects
- effect on metabolism (MCR) of MH (CYP2D6 [3]): no obvious inhibitory effects
- effect on metabolism (MCR) of MH (CYP3A4 [4]): no obvious inhibitory effects
- IC50 (CYP2C9 [5]; CYP2C9, classification of Kong et al [23], read-out: inhibitor potency class by IC50): > 50 µM
- IC50 (CYP2C9 [5]; HLMs, tolbutamide 100 µM, read-out: IC50): > 100 µM
- IC50 (CYP2D6 [6]; CYP2D6, classification of Kong et al [23], read-out: inhibitor potency class by IC50): > 50 µM
- IC50 (CYP2D6 [6]; HLMs, metoprolol 7.5 µM, read-out: IC50): > 100 µM
- IC50 (CYP3A4 [7]; CYP3A4, classification of Kong et al [23], read-out: inhibitor potency class by IC50): > 50 µM
- IC50 (CYP3A4 [7]; HLMs, midazolam 5 µM, read-out: IC50): > 100 µM
- amplitude of contractility in the longitudinal and circular jejunum muscles [8]: increase the amplitude of contractility
- gastric emptying [9]: significantly accelerated
- intestinal transit [9]: significantly accelerated
- Km (CYP1A2 [10]): 8 ± 1.6 µM
- Vmax of MH metabolism (CYP1A2 [10]): 112.4±5.7 nmol/nmol P450/min
- Vmax of MH metabolism (CYP1A2 [10]; listed as Meranzin hydrate): 112.4 nmol/nmol P450/min
- Km (CYP2C19 [11]): 25.9 ± 6.6 µM
- Vmax of MH metabolism (CYP2C19 [11]): 134.3±12.4 nmol/nmol P450/min
- Km (CYP2C19 [11]; listed as Meranzin hydrate): 25.9 µM
- Vmax of MH metabolism (CYP2C19 [11]; listed as Meranzin hydrate): 134.3 nmol/nmol P450/min
- MCR of MH, % of that of the control (CYP1A2 [12]; recombinant CYP1A2, MH 10 µM): 43.5%
- MCR of MH, % of that of the control (CYP1A2 [12]; recombinant CYP1A2, MH 50 µM): 60.5%
- MCR of MH, % of that of the control (CYP2C19 [13]; recombinant CYP2C19, MH 10 µM): 68.5%
- MCR of MH, % of that of the control (CYP2C19 [13]; recombinant CYP2C19, MH 50 µM): 80.5%
- metabolic clearance rate (MCR) of MH, % of that of the control (CYP1A2 [14]): 29.1±7.2% and 29.1%
- metabolic clearance rate (MCR) of MH, % of that of the control (CYP2C19 [15]): 41.3±11.1% and 41.3%
- type of inhibition (CYP1A2 [16]; CYP1A2, HLMs, Dixon / Lineweaver-Burk plots): competitive
- IC50 of MH relative to that of FUR (CYP1A2 [16]; CYP1A2, phenacetin O-deethylation, HLMs, higher than FUR): 3.2 fold
- Ki of MH relative to that of FUR (CYP1A2 [16]; CYP1A2, phenacetin O-deethylation, higher than FUR): approximately 1.5 fold
- IC50 (CYP1A2 [16]; CYP1A2, classification of Kong et al [23], read-out: inhibitor potency class by IC50): < 10 µM
- IC50 (CYP1A2 [16]; HLMs, phenacetin 10 µM, brackets = 95% confidence interval, read-out: IC50): 4.47 µM
- Ki (CYP1A2 [16]; HLMs, phenacetin 3 to 100 µM, MH 0 to 100 µM): 4.56 µM
- type of inhibition (CYP2C19 [17]; CYP2C19, HLMs, Dixon / Lineweaver-Burk plots): competitively; also recorded: full competitive inhibition
- IC50 (CYP2C19 [17]; CYP2C19, classification of Kong et al [23], read-out: inhibitor potency class by IC50): 10 to 50 µM
- Ki (CYP2C19 [17]; HLMs, S-mephenytoin 15 to 120 µM, MH 0 to 100 µM): 42.6 µM

Structure (SMILES): Cc1ncsc1CCCl [CHL, chlormethiazole hydrochloride]
- Ki (CYP2E1; read-out: Ki, specific inhibitor reported value, CYP2E1): 12 µM
